The test concerns E. coli R182. The test is classed as cell-based, Escherichia coli. The text has this: We compared the combination of P1 CRISPR phage (targeting ftsA) and ciprofloxacin to the use of P1 CRISPR phage alone for killing E. coli R182, a ciprofloxacin-resistant strain (FIG. 10A). Ciprofloxacin (Cip) dose was the highest therapeutically relevant concentration (4 micrograms per milliliter) to which the R182 strain is known to be resistant. E. coli were infected with CRISPR phage targeting the E. coli ftsA gene at a range of multiplicities of infection (MOI).
In addition, the combination of P1 CRISPR phage (targeting ftsA) and imipenem, a standard of care antibiotic in E. coli infections, was compared with P1 CRISPR phage alone for killing E. coli R182, a ciprofloxacin-resistant strain (FIG. 10B). […] The E. coli cells were infected with CRISPR phage at a range of MOI.
Finally, we compared the loss of viable E. coli R182 cells following exposure to imipinem, P1 CRISPR phage targeting ftsA, or a combination of both (FIG. 10C). For relevant conditions (n=3 for each condition), imipenem was held at a constant dose (LD50 for E. coli R182) and CRISPR phage was held to a MOI of 2.

`C[C@@H](O)[C@H]1C(=O)N2C(C(=O)O)=C(SCCN=CN)C[C@H]12` [Imipenem, imipenem]: the CFU reduction (constant dose (the LD50 for E. coli R182), FIG. 10B) worked out at 0.3 log.
As for `O=C(O)c1cn(C2CC2)c2cc(N3CCNCC3)c(F)cc2c1=O` [ciprofloxacin], the bacterial viability result (ciprofloxacin alone, 4 micrograms per milliliter, FIG. 10A) was “did not reduce bacterial viability”.

These data come from patent US12606834B2 (priority 2015, dated 2026).
